Structures can show the parent of a compound that is named as a salt. Where two headings read alike, the source gives them in different places.
Target: acetyl cholinesterase (AChE) (Homo sapiens, UniProt P22303)
Assay: Inhibition constants: inhibition of acetyl cholinesterase (AChE), acetyl thiocholine and Ellman's reagent
Assay type: biochemical
Experimental: Inhibition constants were measured in 50 mM Tris pH=8.0. Enzyme and inhibitor were incubated at ambient temperature for 20 minutes. Substrate for the enzyme was then added and the rate of hydrolysis was followed spectrophotometrically. The substrate for PLE and RLE was o-nitrophenylbutyrate and for AChE was acetyl thiocholine and Ellman's reagent.

Sequence of acetyl cholinesterase (AChE) (P22303 32-614): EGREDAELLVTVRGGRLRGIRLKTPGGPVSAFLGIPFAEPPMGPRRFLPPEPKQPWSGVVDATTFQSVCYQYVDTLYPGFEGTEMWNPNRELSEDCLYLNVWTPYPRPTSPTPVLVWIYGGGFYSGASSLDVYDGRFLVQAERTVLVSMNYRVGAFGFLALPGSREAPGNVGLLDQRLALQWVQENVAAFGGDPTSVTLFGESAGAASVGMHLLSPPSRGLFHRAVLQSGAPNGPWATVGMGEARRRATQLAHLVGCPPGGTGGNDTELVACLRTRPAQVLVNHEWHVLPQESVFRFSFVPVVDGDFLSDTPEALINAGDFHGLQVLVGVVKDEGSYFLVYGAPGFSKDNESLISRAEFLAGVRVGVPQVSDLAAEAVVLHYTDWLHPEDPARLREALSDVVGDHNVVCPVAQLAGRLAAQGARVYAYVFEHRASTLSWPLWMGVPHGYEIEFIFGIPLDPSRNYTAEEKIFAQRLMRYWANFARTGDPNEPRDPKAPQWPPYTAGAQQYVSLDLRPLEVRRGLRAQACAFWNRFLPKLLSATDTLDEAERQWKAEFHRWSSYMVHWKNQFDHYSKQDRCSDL

Row | SMILES | Ki (AChE, 50 mM Tris pH=8.0, 20 minutes incubation at ambient temperature, acetyl thiocholine and Ellman's reagent, read-out: Ki (M)* (Esterase)) [M] | Ki [M]
1 | C[N+](C)(CCO)CCCC(=O)C(F)(F)F [N,N-dimethyl-N-[2-(hydroxy)ethyl]-5,5,5-trifluoro-4-oxopentanaminium, hydroxide salt] | 5e-09 | –
2 | C[N+](C)(CCCCO)CCCC(=O)C(F)(F)F [N,N-dimethyl-N-[4-(hydroxy)butyl] 5,5,5-trifluoro-4-oxopentanaminium, hydroxide salt] | – | 6.5e-08
